Legend:
[1] = tested on: HCT-116 cells (116LT, 116HT); assay: GCV and TMTX cytotoxicities on transduced HCT-116 cells; format: cell-based, human
Description: FIGS. 7A-D show GCV sensitivty and TMTX resisatnce in parental, tranduced and TMTX exposed colon cancer cells of the HCT-116 and HCT-8 cells lines. Bulk transduction of HCT-116 and HCT-8 was carried out with an moi of 30 for 24 hours or an moi of 2.5 for 2 hours to produce cell lines 116HT and 116LT, and 8HT and 8LT, respectively. Successful gene transfer and transgene expression was confirmed by PCR and Western blotting. […] Infection of 8LT was not detectable with the assay used.
GCV amd TMTX cytotoxicities were measured on the transduced cells. […] (FIGS. 7A and C). This finding correlates with observed levels of fusion protein expression in these cells.

[2] = tested on: HCT-8, HCT-116 and C85 colorectal cancer cells transduced with SFG-DHFR/HSV-TK; assay: GCV sensitivity of transduced colon cancer cells; format: cell-based, human
Description: (§1) Retrovirus-producing cell lines were generated by transfection of DHFR-HSV1-TK plasmid in parental GP+envAM12 cells. Transfection was performed three times at cell densities of 30%, 50% and 75% using Superfect (Qiagen, Chatsworth, Calif.) as described by the manufacturer. Clones of the retrovirus were selected in 150 nM TMTX. Viral titers were determined against NIH 3T3 cells. Retrovirus-producing AM12V cells were grown in medium without antifolate to a density of 60-80%; the day before infection, the mdeium was changed. Viral transduction was performed by infecting colon cancer cells plated 48 hours before infection in 10 cm dishes. Four single virus exporsures with the desired multiplicity of infection (moi), each of 6 hour duration, were carried out. For each single exposure, fresh AM12V supernatant was filtered through a 0.45 μm cellulose acetate filter and supplemented with polybrene (8 μg/ml). The 2-hour viral transduction was performedin 6 well plates.
(§2) The transduced cells were treated with varying amounts of TMTX (10, 100 and 1000 μM) and levels of fusion protein were detected by Western blotting using either an anti-HSV-TK antibody or an anti-human DHFR antibody.
Three colorectal cancer cells lines (HCT-8, HCT-116 and a cell line, C85, recently established from a patient with liver metastasis) were transduced with the SFG-DHFR/HSV-TK fusion vector of Example 1. […]

[3] = tested on: HCT-8 cells (8LT, 8HT, 8LT-CT); assay: GCV and TMTX cytotoxicities on transduced HCT-8 cells; format: cell-based, human
Description: Bulk transduction of HCT-116 and HCT-8 was carried out with an moi of 30 for 24 hours or an moi of 2.5 for 2 hours to produce cell lines 116HT and 116LT, and 8HT and 8LT, respectively.
GCV amd TMTX cytotoxicities were measured on the transduced cells.

[4] = tested on: DHFR-EGFP fusion protein; assay: Fluorescence microscopy of EGFP expression in transfected GP+envAM12 cells; format: cell-based
Description: Transfections of parental GP+envAM12 cells (Markowitz et al., Virology 167: 400-405 (1988)) with EGFP-containing SFG-plasmids was carried out using DOTAP transfecting reagent (N-{1-(2,3-dioleyloxy)propyl]-N,N,N,-trimethylammonium methyl sulfate, Roche Molecular Biochemicals). Cells transfected with EGFP-expressing vectors were cultrued for at least 12 days and subsequently sorted for EGFP-positive cells using an FACS Vantage SE cell sorter (Becton Dickinson). For fluorescence microscopy, these cells were grown in T25 flasks. Confluent cells were cultured in fresh media with or without TMTX. Fluorescent images of randomly selected areas of the monolayer were taken with a Zeiss Axlovert S100 microscope.

[5] = biological target: T1, DHFR-HSV1 TK fusion protein (Homo sapiens, UniProt P00374, F32S/L23F); assay: Western blot of DHFR-HSV-TK fusion protein in transduced colon cancer cells treated with antifolate; format: cell-based
T1 construct: HSV1 thymidine kinase (fusion partner); expressed in transfected cells; host or cells: HCT-8, HCT-116 and C85 human colorectal cancer cells, retrovirally transduced with SFG-DHFR/HSV-TK
T1 sequence (P00374 other isoform, or with tags, fused parts or gaps L23F/F32S): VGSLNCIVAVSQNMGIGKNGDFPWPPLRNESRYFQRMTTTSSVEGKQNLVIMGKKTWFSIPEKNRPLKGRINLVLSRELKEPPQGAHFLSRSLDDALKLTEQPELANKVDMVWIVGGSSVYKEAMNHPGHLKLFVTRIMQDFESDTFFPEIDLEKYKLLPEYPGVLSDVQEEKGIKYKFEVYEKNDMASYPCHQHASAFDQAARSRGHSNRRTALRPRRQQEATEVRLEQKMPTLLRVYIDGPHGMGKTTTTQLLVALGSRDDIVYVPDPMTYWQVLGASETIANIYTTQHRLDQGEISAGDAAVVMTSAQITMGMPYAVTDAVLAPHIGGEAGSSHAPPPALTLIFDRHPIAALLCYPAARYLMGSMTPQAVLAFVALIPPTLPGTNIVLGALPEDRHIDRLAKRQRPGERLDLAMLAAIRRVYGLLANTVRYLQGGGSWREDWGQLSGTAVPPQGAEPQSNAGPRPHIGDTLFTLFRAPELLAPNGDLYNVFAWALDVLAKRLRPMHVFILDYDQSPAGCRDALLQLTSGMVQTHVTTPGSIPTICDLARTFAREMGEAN
Description: as §1, §2
Three colorectal cancer cells lines (HCT-8, HCT-116 and a cell line, C85, recently established from a patient with liver metastasis) were transduced with the SFG-DHFR/HSV-TK fusion vector of Example 1. Transduction was verified by PCR using transgene specific primers and elevation of DHFR-HSVTK mRNA and protein expression.

[6] = tested on: tumors derived from 8LT-CT cells; assay: PET imaging of 124I-FIAU uptake in transduced tumors; format: in vivo, rat; details: three cycles of 10 mg/kg TMTX, three times daily for three days per cycle, 7 treated and 7 control rats
Description: In a second set of experiments, tumors derived from 8LT-CT and parental HCT-8 cells were evaluated by in vivo imaging. Before the imaging, each animal received three cycles of 10 mg/kg of TMTX, three times daily for three days per cycle. Using PET and the tracer ^124I-FIAU an increase in tumor-signal intensity in TMTX-treated rats was observed.

[7] = tested on: DHFR-HSV1 TK fusion protein; assay: DHFR-HSV1 TK fusion protein level in tumor tissue of treated rats; format: in vivo, rat; details: rats with flank tumors; 10 mg/kg once daily for three days or single 100 mg/kg; vs water-treated controls
Description: Rats bearing flank tumors were treated with 10 mg/kg of TMTX for three days (once daily), or with a single high dose of 100 mg/kg. The levels of DHFR-HSV1 TK fusion protein in the tumor tissue of antifolate treated rats, as well as in water-treated controls were analyzed. […] The mean increase was at least 2-fold.

Nc1nc(O)c2ncn(COC(CO)CO)c2n1 [GCV, gancyclovir]
GCV cytotoxicity compared with parental cell line ([1]; 116HT cells): higher | GCV cytotoxicity compared with parental cell line ([1]; 116LT cells): moderate | increase in sensitivity to GCV ([2]; transduced cells after cycles of nine day exposures to increasing TMTX, vs non-transduced cells): 250 fold | sensitivity to GCV ([2]; transduced cells compared to unselected or untransduced cells): increased sensitivity | GCV cytotoxicity ([3]; 8HT cells): GCV sensitivity | increase in GCV sensitivity ([3]; HCT-8 cells treated chronically with increasing concentrations of TMTX (8LT-CT)): 250 fold

COc1cc(NCc2ccc3nc(N)nc(N)c3c2C)cc(OC)c1OC [TMTX, trimetrexate]
TMTX resistance compared with parental cell line ([1]; 116HT cells): higher | TMTX resistance compared with parental cell line ([1]; 116LT cells): moderate | expression of DHFR-EGFP fusion protein ([4]; DHFR-EGFP fusion vector, 1 μM, durable at 24 and 48 hours): increased | expression of EGFP ([4]; plasmids expressing DHFR and EGFP separated by IRES, or just EGFP): not increased | induction of expression of the DHFR-HSV1 TK fusion protein ([5]; concentration range 10^−2 to 1 μM): dose-dependent | fusion protein levels ([5]; high concentrations (1000 μM), without an increase in mRNA): transient increase in fusion protein levels | fusion protein expression (Western blot) ([5]; transduced colon cancer cells, TMTX 10, 100 and 1000 μM, anti-HSV-TK or anti-human DHFR antibody): upregulation of fusion protein expression was observed | 124I-FIAU accumulation in transduced tumor tissue vs untreated controls [6]: 2.6 fold | mean increase of DHFR-HSV1 TK fusion protein in tumor tissue [7]: at least 2 fold | TMTX cytotoxicity ([3]; 8HT cells): TMTX resistance

COc1cc([C@@H]2c3cc4c(cc3[C@@H](O[C@@H]3O[C@@H]5CO[C@@H](C)O[C@H]5[C@H](O)[C@H]3O)[C@H]3COC(=O)[C@H]23)OCO4)cc(OC)c1O [etoposide]
induction of the fusion protein ([5]; treatment of cells, concentration not given): did not cause induction

Source: US20060003936A1, “Method for modulating the production of a selected protein in vivo” (priority 2002, published 2006)
